{"source": "patent US11911521B2", "about": "“Antibacterial nanofiber” (UNIVERSITY OF MANITOBA, priority 2017, dated 2024)", "assay_type_in_all_cases": "cell-based", "key": {"[1]": {"system": "ATCC-PCS-201 neonatal human dermal fibroblast", "experiment": "In vitro cytotoxicity assay (MTT) on fibroblast cells", "settings": "after 24 h of contact, free BTAC at 34 mg/L", "protocol": "An in vitro cytotoxicity assay was conducted on fibroblast cells (ATCC-PCS-201 neonatal human dermal fibroblast) to evaluate the effect of drug-loaded nanofibers. Nanofibers were cut in to the same shape and weighted to 4 mg (triplicate). They were pre-soaked in 1 mL of ethanol for 10 min. Samples were exposed to UV light for 45 min (each side). Fibroblast cells were cultured in 24 well-plates at density of 1×10^5 (cell/mL). After reaching to 90% confluence, 2 mL of fibroblast culture medium was added to each of the wells and the dressings. Afterwards, the cells were incubated at 37° C. for 24 h. Cell viability was determined using MTT assay after removal of dressings. Each well received 500 μL of 1:10 (v/v) MTT and fibroblast medium solution. Subsequently, after 2 h incubation at 37° C., the culture medium with the MTT solution were aspirated and replaced by 500 μL DMSO. Finally, 100 μL aliquots from each well (in triplicate) were transferred to 96-well plates and viability of cells was evaluated using spectrophotometer at 570 nm wavelength (PowerWave™ XS2 Microplate Spectrophotometer, BioTek Instruments Inc., Canada)."}, "[2]": {"system": "Escherichia coli (E-coli—ATCC 25922)", "experiment": "Antibacterial test by colony counting method, E. coli", "settings": "for logarithm reduction of bacteria / percentage reduction of bacteria: E. coli ~8 Log CFU/mL", "protocol": "(§1) The antibacterial activity of the nanofiber mats was tested by colony counting method against Staphylococcus aureus (S. aureus) and E. coli, which are commonly found on burn wounds. For the antibacterial studies, logarithmic-phase cultures were prepared by initially suspending several colonies in phosphate buffered saline (PBS, 0.1 M, pH 7.4) at a density equivalent to a 0.5 McFarland standard of 1×10^8 colony forming units (CFU) mL^−1 and then diluted 100 times to 1×10^6 CFU mL^−1. 15 μL of the diluted E-coli and S. aureus suspension was further diluted into 45 mL cation-supplemented MuellerHinton (MH) broth and TSB, respectively. After culturing in the incubator at 37° C. for overnight, the concentration of bacteria went up to 10^8 CFU mL^−1. 2 mL of bacteria suspension was added to 4 mg of nanofibers and incubated. At the predetermined contact times, 150 μL of bacteria culture was taken from the flask, neutralized, and decimal serial dilutions with PBS were repeated with each initial sample. 30 μL of the diluted sample was then spread onto four zones of a Tryptone Soya agar plate (CM 0131, OXOID). After incubation of the plates at 37° C. for 18 h, the number of viable bacteria (colonies) was counted manually for control (A, bacteria suspension without sample) and BTAC-loaded nanofibers (B). Bacteria reduction was reported as percentage and Log 10. The percentage reduction of bacteria (%)=(A−B)/A×100; and logarithm reduction=log(A/B)."}, "[3]": {"system": "Staphylococcus aureus (S. aureus—ATCC 29213)", "experiment": "Antibacterial test by colony counting method, S. aureus", "settings": "for logarithm reduction of bacteria / percentage reduction of bacteria: S. aureus ~8 Log CFU/mL", "protocol": "as §1"}}}
{"compound": "CCCCCCCCCCCCCC[N+](C)(C)Cc1ccccc1", "note": "[BTAC, benzyl dimethyl tetradecyl ammonium chloride]", "values": [{"measurement": "fibroblast cell viability", "setting": "[1]", "value": "55.2±4.0"}, {"measurement": "logarithm reduction of bacteria", "setting": "[2]; contact time 5 min", "value": "1.3 ± 0.0", "unit": "Log10"}, {"measurement": "percentage reduction of bacteria", "setting": "[2]; contact time 5 min", "value": "95.3 ± 0.3", "unit": "%"}, {"measurement": "logarithm reduction of bacteria", "setting": "[2]; contact time 10 min", "value": "1.4 ± 0.1", "unit": "Log10"}, {"measurement": "percentage reduction of bacteria", "setting": "[2]; contact time 10 min", "value": "96.0 ± 0.2", "unit": "%"}, {"measurement": "logarithm reduction of bacteria", "setting": "[2]; contact time 20 min", "value": "1.9 ± 0.1", "unit": "Log10"}, {"measurement": "percentage reduction of bacteria", "setting": "[2]; contact time 20 min", "value": "98.8 ± 0.5", "unit": "%"}, {"measurement": "logarithm reduction of bacteria", "setting": "[2]; contact time 30 min", "value": 8.9, "unit": "Log10"}, {"measurement": "percentage reduction of bacteria", "setting": "[2]; contact time 30 min", "value": 100.0, "unit": "%"}, {"measurement": "time to 100% bacteria inhibition", "setting": "[2]; against E. coli", "value": "< 60", "unit": "min"}, {"measurement": "logarithm reduction of bacteria", "setting": "[3]; contact time 5 min", "value": "1.4 ± 0.2", "unit": "Log10"}, {"measurement": "percentage reduction of bacteria", "setting": "[3]; contact time 5 min", "value": "96.1 ± 0.2", "unit": "%"}, {"measurement": "logarithm reduction of bacteria", "setting": "[3]; contact time 10 min", "value": "1.8 ± 0.3", "unit": "Log10"}, {"measurement": "percentage reduction of bacteria", "setting": "[3]; contact time 10 min", "value": "98.5 ± 0.9", "unit": "%"}, {"measurement": "logarithm reduction of bacteria", "setting": "[3]; contact time 20 min", "value": 8.9, "unit": "Log10"}, {"measurement": "percentage reduction of bacteria", "setting": "[3]; contact time 20 min", "value": 100.0, "unit": "%"}, {"measurement": "time to 100% bacteria inhibition", "setting": "[3]; against S. aureus", "value": "< 60", "unit": "min"}]}
